Measured values reported in patent US10961238B2, “Modulators of hedgehog (Hh) signaling pathway” (E-THERAPEUTICS PLC, priority 2016, dated 2021).

Test system: C3H10T1/2 cells
Experiment: C3H assay: differentiation of C3H10T1/2 cells by mSHH, measurement of alkaline phosphatase
Type: cell-based, mouse
Details: Mus musculus, C3H 10T1/2; C3H10T1/2 cells stimulated with mSHH for 72 hours; alkaline phosphatase activity; read-out: IC50 Ranges

Row | IC50 [nM] | Structure (SMILES)
1 | 10 to 100 | O=C(NC1(C(F)(F)F)CC1)[C@H]1C[C@@H](S(=O)(=O)N2CCC(c3c[nH]c4ncccc34)CC2)C1 [Compound 297, cis-3-[4-(1H-pyrrolo[2,3-b]pyridin-3-yl)piperidin-1-yl]sulfonyl-N-[1-(trifluoromethyl)cyclopropyl] cyclobutane-1-carboxamide]
2 | 1000 to 10000 | CC(C)(C)OC(=O)N1CC(S(=O)(=O)N2CCC(c3nc4ccccc4[nH]3)CC2)C1 [Compound 299, tert-butyl 3-[4-(1H-benzimidazol-2-yl)piperidin-1-yl]sulfonylaze-tidine-1-carboxylate]
3 | 1000 to 10000 | O=C(NC1(C(F)(F)F)CC1)N1CC(S(=O)(=O)N2CCC(c3nc4ccccc4[nH]3)CC2)C1 [Compound 300, 3-[4-(1H-benzimidazol-2-yl)piperidin-1-yl]sulfonyl-N-[1-(trifluoromethyl)cyclopropyl] azetidine-1-carboxamide]
4 | 100 to 1000 | CC(C)(C)OC(=O)N1CC(S(=O)(=O)N2CCC(c3ccccc3)CC2)C1 [Compound 301, tert-butyl 3-(4-phenylpiperidin-1-yl)sulfonylaze-tidine-1-carboxylate]
5 | 100 to 1000 | Cc1cc(Cl)ccc1C1CCN(S(=O)(=O)C2CN(C(=O)OC(C)(C)C)C2)CC1 [Compound 302, tert-butyl 3-[4-(4-chloro-2-methylphenyl)piperidin-1-yl]sulfonylaze-tidine-1-carboxylate]
6 | 100 to 1000 | CC(C)(C)OC(=O)N1CC(S(=O)(=O)N2CCC(c3ccc(C#N)cc3)CC2)C1 [Compound 303, tert-butyl 3-[4-(4-cyanophenyl)piperidin-1-yl]sulfonylaze-tidine-1-carboxylate]
7 | 100 to 1000 | CC(C)(C)OC(=O)N1CC(S(=O)(=O)N2CCC(c3ccc(Cl)cc3)CC2)C1 [Compound 304, tert-butyl 3-[4-(4-chlorophenyl)piperidin-1-yl]sulfonylaze-tidine-1-carboxylate]
8 | 100 to 1000 | CC(C)N(CC(=O)N1CC(S(=O)(=O)N2CCC(c3ccccc3)CC2)C1)C(C)C [Compound 306, 2-[di(propan-2-yl)amino]-1-[3-(4-phenylpiperidin-1-yl)sulfonylaze-tidin-1-yl]ethanone]
9 | 1000 to 10000 | C[C@@H](C(=O)N1CC(S(=O)(=O)N2CCC(c3ccccc3)CC2)C1)N(C)C [Compound 307, 2-(dimethylamino)-1-[3-(4-phenyl-piperidin-1-yl)sulfonylaze-tidin-1-yl]propan-1-one]
10 | 10 to 100 | Cc1noc(C)c1NC(=O)[C@H]1C[C@@H](S(=O)(=O)N2CCC(c3c[nH]c4ncccc34)CC2)C1 [Compound 309, cis-N-(3,5-dimethyl-1,2-oxazol-4-yl)-3-[4-(1H-pyrrolo [2,3-b]pyridin-3-yl)piperidin-1-yl]sulfonylcycl obutane-1-carboxamide]
11 | 100 to 1000 | Cc1noc(C)c1NC(=O)[C@H]1C[C@H](S(=O)(=O)N2CCC(c3c[nH]c4ncccc34)CC2)C1 [Compound 310, trans-N-(3,5-dimethyl-1,2-oxazol-4-yl)-3-[4-(1H-pyrrolo [2,3-b]pyridin-3-yl)piperidin-1-yl]sulfonylcycl obutane-1-carboxamide]
12 | 10 to 100 | O=S(=O)(C1CN(c2nc(-c3ccccc3)cs2)C1)N1CCC(c2c[nH]c3ncccc23)CC1 [Compound 311, 4-phenyl-2-[3-[4-(1H-pyrrolo[2,3-b]pyridin-3-yl)piperidin-1-yl]sulfonylazetidin-1-yl]-1,3-thiazole]
13 | 10 to 100 | O=S(=O)(C1CN(c2nc3ccccc3s2)C1)N1CCC(c2c[nH]c3ncccc23)CC1 [Compound 312, 2-[3-[4-(1H-pyrrolo[2,3-b]pyridin-3-yl)piperidin-1-yl]sulfonylaze-tidin-1-yl]-1,3-benzothiazole]
14 | 1000 to 10000 | CN1CCC[C@H]1C(=O)N1CC(S(=O)(=O)N2CCC(c3ccccc3)CC2)C1 [Compound 315, [(2S)-1-methyl-pyrrolidin-2-yl]-[3-(4-phenylpiperidin-1-yl)sulfonylaze-tidin-1-yl]methanone]
15 | 1000 to 10000 | Cc1noc(C)c1C(=O)N1CC(S(=O)(=O)N2CCC(c3ccccc3)CC2)C1 [Compound 316, (3,5-dimethyl-1,2-oxazol-4-yl)-[3-(4-phenylpiperidin-1-yl)sulfonylaze-tidin-1-yl]methanone]
16 | 100 to 1000 | Cc1cc(Cl)ccc1C1CCN(S(=O)(=O)C2CN(C(=O)CN(C(C)C)C(C)C)C2)CC1 [Compound 317, 1-[3-[4-(4-chloro-2-methylphenyl)piperidin-1-yl]sulfonylaze-tidin-l-yl]-2-[di(propan-2-yl)amino] ethanone]
17 | 1000 to 10000 | Cc1cc(Cl)ccc1C1CCN(S(=O)(=O)C2CN(C(=O)[C@@H]3CCCN3C)C2)CC1 [Compound 318, [3-[4-(4-chloro-2-methylphenyl)piperidin-1-yl]sulfonylaze-tidin-1-yl]-[(2S)-1-methylpyrrolidin-2-yl]methanone]
18 | 100 to 1000 | O=C(OC1CCOCC1)N1CC(S(=O)(=O)N2CCC(c3ccc(Cl)cc3)CC2)C1 [Compound 320, oxan-4-yl 3-[4-(4-chlorophenyl)piperidin-1-yl]sulfonylaze-tidine-1-carboxylate]

Row | IC50 [nM] | Structure (SMILES)
19 | 10 to 100 | CC(C)[C@H](CO)NC(=O)N1CC(S(=O)(=O)N2CCC(c3ccc(Cl)cc3)CC2)C1 [Compound 321, 3-[4-(4-chlorophenyl)piperidin-1-yl]sulfonyl-N-[(2R)-1-hydroxy-3-methylbutan-2-yl]azetidine-1-carboxamide]
20 | 10 to 100 | Cc1noc(C)c1NC(=O)N1CC(S(=O)(=O)N2CCC(c3ccc(Cl)cc3)CC2)C1 [Compound 322, 3-[4-(4-chlorophenyl)piperidin-1-yl]sulfonyl-N-(3,5-dimethyl-1,2-oxazol-4-yl)azetidine-1-carboxamide]
21 | 10 to 100 | CC(C)(C(=O)N1CC(S(=O)(=O)N2CCC(c3c[nH]c4ncccc34)CC2)C1)C(F)(F)F [Compound 323, 3,3,3-trifluoro-2,2-dimethyl-1-[3-[4-(1H-pyrrolo[2,3-b]pyridin-3-yl)piperidin-1-yl]sulfonylaze-tidin-1-yl]propan-1-one]
22 | 10 to 100 | CC(C)N(CC(=O)N1CC(S(=O)(=O)N2CCC(c3ccc(C#N)cc3)CC2)C1)C(C)C [Compound 324, 4-[1-[1-[2-[di(propan-2-yl)amino]acetyl]azetidin-3-yl]sulfonylpiper-idin-4-yl]benzonitrile]
23 | 1000 to 10000 | CN(C)CC(=O)N1CC(S(=O)(=O)N2CCC(c3c[nH]c4ncccc34)CC2)C1 [Compound 325, 2-(dimethylamino)-1-[3-[4-(1H-pyrrolo[2,3-b]pyridin-3-yl)piperidin-1-yl]sulfonylaze-tidin-1-yl]ethanone]
24 | 10 to 100 | CC(C)N(CC(=O)N1CC(S(=O)(=O)N2CCC(c3c[nH]c4ncccc34)CC2)C1)C(C)C [Compound 326, 2-[di(propan-2-yl)amino]-1-[3-[4-(1H-pyrrolo [2,3-b]pyridin-3-yl)piperidin-1-yl]sulfonylaze-tidin-1-yl]ethanone]
25 | 100 to 1000 | CC(C)(C)OC(=O)N1CC(S(=O)(=O)N2CCC(c3ccc(F)cc3)CC2)C1 [Compound 327, tert-butyl 3-[4-(4-fluorophenyl)piperidin-l-yl]sulfonylaze-tidine-1-carboxylate]
26 | 1000 to 10000 | CN(C)CC(=O)N1CC(S(=O)(=O)N2CCC(c3coc4cccnc34)CC2)C1 [Compound 329, 2-(dimethylamino)-1-[3-(4-furo[3,2-b]pyridin-3-ylpiperidin-1-yl)sulfonylaze-tidin-1-yl]ethanone]
27 | 10 to 100 | CC(C)N(CC(=O)N1CC(S(=O)(=O)N2CCC(c3coc4cccnc34)CC2)C1)C(C)C [Compound 330, 2-[di(propan-2-yl)amino]-1-[3-(4-furo[3,2-b]pyridin-3-ylpiperidin-1-yl)sulfonylaze-tidin-1-yl]ethanone]
28 | 10 to 100 | N#Cc1ccc(C2CCN(S(=O)(=O)C3CN(C(=O)NC4(C(F)(F)F)CC4)C3)CC2)cc1 [Compound 331, 3-[4-(4-cyanophenyl)piperidin-1-yl]sulfonyl-N-[1 (trifluoromethyl)cyclopropyl] azetidine-1-carboxamide]
29 | 10 to 100 | C[C@@H](NC(=O)N1CC(S(=O)(=O)N2CCC(c3c[nH]c4ncccc34)CC2)C1)C(F)(F)F [Compound 332, 3-[4-(1H-pyrrolo [2,3-b]pyridin-3-yl)piperidin-1-yl]sulfonyl-N-[(2R)-1,1,1-trifluoropropan-2-yl]azetidine-1-carboxamide]
30 | 10 to 100 | N#Cc1ccc(NC(=O)N2CC(S(=O)(=O)N3CCC(c4c[nH]c5ncccc45)CC3)C2)cc1 [Compound 335, N-(4-cyanophenyl)-3-[4-(1H-pyrrolo [2,3-b]pyridin-3-yl)piperidin-1-yl]sulfonylaze-tidine-1-carboxamide]
31 | 10 to 100 | CC(C)(C)OC(=O)NC1CC(S(=O)(=O)N2CCC(c3c[nH]c4ncccc34)CC2)C1 (stereo not drawn) [Compound 336, tert-butyl N-[3-[4-(1H-pyrrolo[2,3-b]pyridin-3-yl)piperidin-1-yl]sulfonylcyclobutyl] carbamate]
32 | 100 to 1000 | O=S(=O)(C1CN(c2nc3ccccc3s2)C1)N1CCC(c2ccncc2)CC1 [Compound 337, 2-[3-(4-pyridin-4-ylpiperidin-1-yl)sulfonylaze-tidin-1-yl]-1,3-benzothiazole]
33 | 10 to 100 | O=S(=O)(C1CN(c2nc3ccccc3o2)C1)N1CCC(c2c[nH]c3ncccc23)CC1 [Compound 338, 2-[3-[4-(1H-pyrrolo[2,3-b]pyridin-3-yl)piperidin-1-yl]sulfonylaze-tidin-1-yl]-1,3-benzoxazole]
34 | 1000 to 10000 | CC(C)(C)OC(=O)N1CC(S(=O)(=O)N2CCC(c3c[nH]c4cnccc34)CC2)C1 [Compound 339, tert-butyl 3-[4-(1H-pyrrolo[2,3-c]pyridin-3-yl)piperidin-1-yl]sulfonylaze-tidine-1-carboxylate]
35 | 1000 to 10000 | CN(C(=O)N1CC(S(=O)(=O)N2CCC(c3ccc(F)cc3)CC2)C1)C1CC1 [Compound 340, N-cyclopropyl-3-[4-(4-fluorophenyl)piperidin-1-yl]sulfonyl-N-methylazetidine-1-carboxamide]
36 | 10 to 100 | O=C(NC1(C(F)(F)F)CC1)N1CC(S(=O)(=O)N2CCC(c3ccc(Cl)cc3)CC2)C1 [Compound 341, 3-[4-(4-chlorophenyl)piperidin-1-yl]sulfonyl-N-[1-(trifluoromethyl)cyclopropyl] azetidine-1-carboxamide]
